Test results: patent publication US11306091B2, “Process for producing fluorinated compounds using alcohol solvent having unsaturated hydrocarbon” (FUTURECHEM CO., LTD, priority 2019, dated 2022)

Assay: Comparison of solubility of precursor compounds according to the kind of reaction solvents (observation with the naked eye)
Assay type: physicochemical
Details: for Solubility in 2-methyl-3-butene-2-ol (the present invention), 60° C. / Solubility in 2-methyl-3-butene-2-ol (the present invention), room temp: 1.0 ml 2-methyl-3-butene-2-ol; for Solubility in 2-methyl-3-butene-2-ol (the present invention), 60° C. / Solubility in 2-methyl-3-butyne-2-ol (the present invention), 60° C. / Solubility in t-amyl alcohol (KR 10-0789847), 60° C.: shaking 1 minute at 60° C.; for Solubility in 2-methyl-3-butene-2-ol (the present invention), 60° C. / Solubility in 2-methyl-3-butene-2-ol (the present invention), room temp / Solubility in 2-methyl-3-butyne-2-ol (the present invention), 60° C. / Solubility in 2-methyl-3-butyne-2-ol (the present invention), room temp / Solubility in t-amyl alcohol (KR 10-0789847), 60° C. / Solubility in t-amyl alcohol (KR 10-0789847), room temp: naked eye; for Solubility in 2-methyl-3-butene-2-ol (the present invention), room temp / Solubility in 2-methyl-3-butyne-2-ol (the present invention), room temp / Solubility in t-amyl alcohol (KR 10-0789847), room temp: shaking 1 minute at room temperature; for Solubility in 2-methyl-3-butyne-2-ol (the present invention), 60° C. / Solubility in 2-methyl-3-butyne-2-ol (the present invention), room temp: 1.0 ml 2-methyl-3-butyne-2-ol; for Solubility in t-amyl alcohol (KR 10-0789847), 60° C. / Solubility in t-amyl alcohol (KR 10-0789847), room temp: 1.0 ml t-amyl alcohol; for State of solution dissolved at 60° C. after cooling to room temperature, 2-methyl-3-butene-2-ol / 2-methyl-3-butyne-2-ol: solvents of the present invention, dissolved by heating to 60° C., cooled to room temperature; for State of solution dissolved at 60° C. after cooling to room temperature, t-amyl alcohol: cooled to room temperature after the lapse of time
Procedure: Experiments for comparing the solubility in the 2-methyl-3-butene-2-ol solvent and 2-methyl-3-butyne-2-ol solvent according to the present invention, and the t-amyl alcohol solvent of the prior art (KE 10-0789847) were performed. Each of the precursors of FP-CIT, FDG, FLT, FMISO and FC119S in solid states was put in a vial, and 1.0 ml of each solvent was added thereto, followed by shaking at room temperature and 60° C. for 1 minutes, respectively, for dissolution.

| Solubility in 2-methyl-3-butene-2-ol (the present invention), 60° C. | Solubility in 2-methyl-3-butene-2-ol (the present invention), room temp | Solubility in 2-methyl-3-butyne-2-ol (the present invention), 60° C. | Solubility in 2-methyl-3-butyne-2-ol (the present invention), room temp | Solubility in t-amyl alcohol (KR 10-0789847), 60° C. | Solubility in t-amyl alcohol (KR 10-0789847), room temp | State of solution dissolved at 60° C. after cooling to room temperature, 2-methyl-3-butene-2-ol / 2-methyl-3-butyne-2-ol | State of solution dissolved at 60° C. after cooling to room temperature, t-amyl alcohol | Compound |
| --- | --- | --- | --- | --- | --- | --- | --- | --- |
| Dissolved | Dissolved |  |  |  |  |  |  | CCC(Oc1ccc2ccccc2c1)OS(C)(=O)=O (centres unmarked) [1-(naphthalene-2-yloxy)propyl methanesulfonate] |
| Dissolved | Dissolved |  |  |  |  |  |  | CS(=O)(=O)OCCCOc1ccc2ccccc2c1 [3-(naphthalene-2-yloxy)propyl methanesulfonate] |
| Dissolved | Insoluble | Dissolved | Dissolved | Dissolved | Insoluble | not precipitated as solids | precipitated again as solids | O=[N+]([O-])c1nccn1CC(O)CF (centres unmarked) [FMISO] |
| Dissolved | Dissolved | Dissolved | Insoluble | Insoluble | Insoluble | not precipitated as solids |  | Cc1cn([C@H]2C[C@H](OS(=O)(=O)c3ccc([N+](=O)[O-])cc3)[C@@H](COC(c3ccccc3)(c3ccccc3)c3ccccc3)O2)c(=O)n(C(=O)OC(C)(C)C)c1=O [FLT, 3-N-Boc-5′-O-trityl-3′-O-nosyl-thymidine] |
| Dissolved | Dissolved | Dissolved | Dissolved | Dissolved | Insoluble |  | precipitated again as solids | CC(=O)OC[C@H]1O[C@@H](OC(C)=O)[C@@H](OS(=O)(=O)C(F)(F)F)[C@@H](OC(C)=O)[C@@H]1OC(C)=O [FDG, 1,3,4,6-tetra-O-acetyl-2-O-trifluoro-methanesulfonyl-beta-D-mannopyranose] |

| Compound | Solubility in 2-methyl-3-butene-2-ol (the present invention), 60° C. | Solubility in 2-methyl-3-butene-2-ol (the present invention), room temp | Solubility in 2-methyl-3-butyne-2-ol (the present invention), 60° C. | Solubility in 2-methyl-3-butyne-2-ol (the present invention), room temp | Solubility in t-amyl alcohol (KR 10-0789847), 60° C. | Solubility in t-amyl alcohol (KR 10-0789847), room temp | State of solution dissolved at 60° C. after cooling to room temperature, 2-methyl-3-butene-2-ol / 2-methyl-3-butyne-2-ol | State of solution dissolved at 60° C. after cooling to room temperature, t-amyl alcohol |
| --- | --- | --- | --- | --- | --- | --- | --- | --- |
| CN(C(=O)OC(C)(C)C)c1ccc(-c2nc3ccc(OC[C@@H](COS(=O)(=O)c4ccc([N+](=O)[O-])cc4)OC4CCCCO4)cc3s2)cn1 (stereo partly drawn) [FC119S, (2S)-3-((2-(6-((tert-butoxycarbonyl) (methyl)amino)pyridin-3-yl)benzo[d]thiazol-6-yl)oxy)-2-((tetrahydro-2H-pyran-2-yl)oxy)propyl 4-nitrobenzenesulfonate] | Dissolved | Dissolved | Dissolved | Dissolved | Insoluble | Insoluble |  |  |
